Measured values from patent US20160151337A1, “ANNELATED PYRROLES AND THEIR USE AS CRAC INHIBITORS” (Grünenthal GmbH, priority 2013, published 2016).

Key:
CRAC channel = biological target: T1, CRAC channel (Homo sapiens, UniProt Q96D31); assay: HEK Calcium Influx Assay (FLIPR), inhibition of store-operated Ca2+ entry after thapsigargin store depletion; type: cell-based; settings: 10 μM compound, HEK293 cells, read-out: % inhib. [@ 10 μM] FLIPR
T1 construct: endogenous in cells; host or cells: HEK293 (ECACC), untransfected
Experimental: The effect of compounds of the invention on intracellular [Ca^2+] was tested in the HEK293 cell line (ECACC).
HEK293 cells were cultured in DMEM/F12/Glutamax (Gibco) containing 10% FCS (Gibco), and maintained at 37° C., 5% CO2. Cell were split twice a week [3*10^6 (Mon-Thu) and 1*10^6 (Thu-Mon) cells/50 ml medium in 1-175 ZK culture flasks, respectively]. Twenty four hours pre-experiment, cells were seeded on 96 well plates (Poly-D-Lysine 96 well Black/Clear Plate, BD Biocoat REF 356640) at a density of 40,000 cells/well in DMEM/F12 (Gibco) containing 10% FCS (Gibco), and maintained at 37° C., 5% CO2.
Prior to store-depletion, cell culture medium was removed and cells were loaded with the Calcium-sensitive fluorescent dye comprised within the Calcium-4-assay kit (Molecular Devices) in nominally Ca^2+-free HBS buffer (140 mM NaCl, 4 mM KCl, 0.2 mM MgCl2, 11 mM D-glucose, and 10 mM HEPES, pH 7.4) according to manufacturer's instruction for 60 min at 37° C., 5% CO2.
Passive depletion of intracellular Ca^2+-stores was then triggered by employing the SERCA inhibitor thapsigargin (2 μM final) for 10 min in the dark (RT). To prevent immediate Ca^2+-entry via the activated store-operated channels (SOCs), cells were maintained in Ca^2+-free HBS buffer comprising 100 μM EGTA during store-depletion.
Intracellular changes in [Ca^2+] were subsequently monitored with the FLIPR device (Molecular Devices). In brief, baseline imaging post-store depletion was allowed for 1 min before adjusting the extracellular buffer to 3 mM CaCl2. Increases in intracellular [Ca^2+] due to pre-activated SOC channels were monitored for 15 min until intracellular Ca^2+ levels had declined into a steady-state. Finally, compounds were administered, and Ca^2+ signals were recorded for additional 10 min.
Inhibition of endogenous SOC in HEK293 cells was quantified employing the average Ca^2+ signal measured from 9.5-10 min post-administration. Zero percent inhibition (MAX) was defined as the Ca^2+ signal recorded from wells to which DMSO-only had been added instead of compound. Hundred percent inhibition (MIN) was defined as the signal obtained from wells in which cells haven't been treated with TG prior to Ca^2+ addition and to which DMSO-only had been added instead of compound. For routine IC50 determinations of compounds, 8 concentrations of a serial dilution (1:3.16) were tested, starting off from 10 μM. Reliable IC50's could consequently be determined only, if they were at least sub 2.5-3 μM.

[1] = tested on: Interleukin-2 (IL-2) production/release in Jurkat T cells; assay: Jurkat IL-2 Production Assay (PHA-stimulated, IL-2 AlphaLisa); type: cell-based; settings: Homo sapiens, PHA 15 μg/ml, 22 h, inhibition of IL-2 production
Experimental: The effect of compounds of the invention on Interleukin-2 (IL-2) production/release was tested in the Jurkat T cell line (ECACC) clone E6-1.
Jurkat T cells were cultured in DMEM/F12/Glutamax (Gibco) containing 10% FCS (Gibco), and maintained at 37° C., 5% CO2. Cells were split twice a week [5*10^6 (Mon-Thu) and 1*10^7 (Thu-Mon) cells/50 ml medium in 1-175 ZK culture flasks, respectively].
Prior to experiment, cells were seeded on 96 well plates (Cellstar 96 Well; Cat No. 655180, Greiner bio-one) at a density of 5*10^5 cells/well in DMEM/F12/Glutamax (Gibco) containing 10% FCS (Gibco), and incubated for 60 min at 37° C., 5% CO2. Subsequently, compounds were added and cells were allowed to incubate for 30 min at 37° C., 5% CO2. Cells were then stimulated with 15 μg/ml Phyto-hemagglutinin (PHA; Sigma) for 22 hours at 37° C., 5% CO2.
Before sampling of the supernatants, cells were spun down (200*g/5 min/RT). The amount of IL-2 released into the supernatant was quantified with the human IL-2 AlphaLisa kit (Perkin Elmer) according to manufacturer's instructions. Luminescence proximity measurements were carried out in the Synergy H4 reader (BioTek) employing the fluorescence setting of the reader (ex: 680/30 nm; em: 620/40 nm).
Inhibition of IL-2 production/release in/from Jurkat T cells was quantified as follows: Zero percent inhibition (MAX) was defined as the [IL-2] determined in supernatants derived from cells to which PHA & DMSO-only had been added instead of compound. Hundred percent inhibition (MIN) was defined as the [IL-2] determined in supernatants derived from cells that had been pre-treated with 1 μM CyclosporineA (Sigma) before the addition of 15 μg/ml PHA.
For routine IC50 determinations of compounds, 8 concentrations of a serial dilution (1:3.16) were tested, starting off from 10 μM.

T1 sequence (Q96D31 whole entry): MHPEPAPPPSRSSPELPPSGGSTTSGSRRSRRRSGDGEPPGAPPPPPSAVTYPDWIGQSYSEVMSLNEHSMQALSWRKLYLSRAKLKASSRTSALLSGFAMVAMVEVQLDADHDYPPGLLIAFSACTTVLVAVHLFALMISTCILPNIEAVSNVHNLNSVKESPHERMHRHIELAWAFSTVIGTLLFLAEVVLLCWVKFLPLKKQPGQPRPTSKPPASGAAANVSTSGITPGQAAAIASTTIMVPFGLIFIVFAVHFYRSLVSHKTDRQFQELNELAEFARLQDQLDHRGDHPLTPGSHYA

| Compound | inhibition at 10 µM (CRAC channel) [%] | IC50 [1] [µM] |
| --- | --- | --- |
| Cc1cc(Cl)c(F)cc1N1CCc2[nH]c(-c3c(F)cccc3F)cc2C1 [Example 71, 5-(4-Chloro-5-fluoro-2-methyl-phenyl)-2-(2,6-difluoro-phenyl)-4,5,6,7-tetrahydro-1H-pyrrolo[3,2-c]pyridine] | < 50 | 1 to 5 |
| Cc1nc(N2CCc3[nH]c(-c4c(F)cccc4F)cc3C2)ccc1Br [Example 25, 5-(5-Bromo-6-methyl-pyridin-2-yl)-2-(2,6-difluoro-phenyl)-4,5,6,7-tetrahydro-1H-pyrrolo[3,2-c]pyridine] | < 50 | 1 to 5 |
| Cc1cc([S+](C)[O-])ncc1N1CCc2[nH]c(-c3c(F)cccc3F)cc2C1 (centres unmarked) [Example 70, 2-(2,6-Difluoro-phenyl)-5-[4-methyl-6-(methylsulfinyl)-pyridin-3-yl]-4,5,6,7-tetrahydro-1H-pyrrolo[3,2-c]pyridine] | > 70 | 1 to 5 |
| CC(=O)c1ccc(N2CCc3[nH]c(-c4c(F)cccc4F)cc3C2)c(C)c1 [Example 82, 1-[4-[2-(2,6-Difluoro-phenyl)-4,5,6,7-tetrahydro-1H-pyrrolo[3,2-c]pyridin-5-yl]-3-methyl-phenyl]-ethanone] | > 70 | 0.5 to 1 |
| Cc1cc(S(C)(=O)=O)ncc1N1CCc2[nH]c(-c3c(F)cccc3F)c(F)c2C1 [Example 142, 2-(2,6-Difluoro-phenyl)-3-fluoro-5-(4-methyl-6-methylsulfonyl-pyridin-3-yl)-4,5,6,7-tetrahydro-1H-pyrrolo[3,2-c]pyridine] | > 70 | < 0.5 |
| Cc1cc(Cl)ccc1N1CCc2[nH]c(-c3c(F)cccc3F)cc2C1 [Example 11, 5-(4-Chloro-2-methyl-phenyl)-2-(2,6-difluoro-phenyl)-4,5,6,7-tetrahydro-1H-pyrrolo[3,2-c]pyridine] | < 50 | 0.5 to 1 |
| Cn1nc(C2CC2)cc1N1CCc2[nH]c(-c3c(F)cccc3F)cc2C1 [Example 106, 5-(5-Cyclopropyl-2-methyl-2H-pyrazol-3-yl)-2-(2,6-difluoro-phenyl)-4,5,6,7-tetrahydro-1H-pyrrolo[3,2-c]pyridine] | > 70 | 0.5 to 1 |
| Cc1cc(S(C)(=O)=O)ncc1N1CCc2[nH]c(-c3cccnc3C)cc2C1 [Example 83, 5-(4-Methyl-6-methylsulfonyl-pyridin-3-yl)-2-(2-methyl-pyridin-3-yl)-4,5,6,7-tetrahydro-1H-pyrrolo[3,2-c]pyridine] | > 70 | 1 to 5 |
| Cn1nc(N2CCc3[nH]c(-c4c(F)cccc4F)cc3C2)cc1C1CC1 [Example 107, 5-(5-Cyclopropyl-1-methyl-1H-pyrazol-3-yl)-2-(2,6-difluoro-phenyl)-4,5,6,7-tetrahydro-1H-pyrrolo[3,2-c]pyridine] | > 70 | 1 to 5 |
| CNS(=O)(=O)c1ccc(N2CCc3[nH]c(C4CCCCC4)cc3C2)c(C)c1 [Example 129] | < 50 | 1 to 5 |
| CCOc1cc(C)c(N2CCc3[nH]c(-c4c(F)cccc4F)cc3C2)cn1 [Example 69, 2-(2,6-Difluoro-phenyl)-5-(6-ethoxy-4-methyl-pyridin-3-yl)-4,5,6,7-tetrahydro-1H-pyrrolo[3,2-c]pyridine] | > 70 | 0.5 to 1 |
| Cc1sc(-c2cccnc2)nc1N1CCc2[nH]c(-c3c(F)cccc3F)c(I)c2C1 [Example 66, 4-[2-(2,6-Difluoro-phenyl)-3-iodo-4,5,6,7-tetrahydro-1H-pyrrolo[3,2-c]pyridin-5-yl]-5-methyl-2-pyridin-3-yl-thiazole] | < 50 | 1 to 5 |
| Cc1cc(N)ncc1N1CCc2[nH]c(-c3c(F)cccc3F)cc2C1 [Example 95, [5-[2-(2,6-Difluoro-phenyl)-4,5,6,7-tetrahydro-1H-pyrrolo[3,2-c]pyridin-5-yl]-4-methyl-pyridin-2-yl]-amine] | > 70 | – |
| Cc1c(F)cncc1N1CCc2[nH]c(-c3c(F)cccc3F)cc2C1 [Example 94, 2-(2,6-Difluoro-phenyl)-5-(5-fluoro-4-methyl-pyridin-3-yl)-4,5,6,7-tetrahydro-1H-pyrrolo[3,2-c]pyridine] | > 70 | – |
| Cc1sc(-c2ncco2)nc1N1CCc2[nH]c(-c3c(F)cccc3Cl)cc2C1=O [Example 53, 2-(2-Chloro-6-fluoro-phenyl)-5-(5-methyl-2-oxazol-2-yl-thiazol-4-yl)-1,5,6,7-tetrahydro-pyrrolo[3,2-c]pyridin-4-one] | > 70 | – |
| O=C1c2cc(-c3c(F)cccc3Cl)[nH]c2CCN1c1c(F)cccc1F [Example 49, 2-(2-Chloro-6-fluoro-phenyl)-5-(2,6-difluoro-phenyl)-1,5,6,7-tetrahydro-pyrrolo[3,2-c]pyridin-4-one] | > 70 | – |
| O=C1c2cc(-c3c(F)cccc3F)[nH]c2CCN1c1c(F)cccc1F [Example 46, 2,5-Bis(2,6-difluoro-phenyl)-1,5,6,7-tetrahydro-pyrrolo[3,2-c]pyridin-4-one] | 50 to 70 | – |
| Cc1sc(C2CC2)nc1N1CCc2[nH]c(-c3c(F)cccc3Cl)cc2C1 [Example 61, 4-[2-(2-Chloro-6-fluoro-phenyl)-4,5,6,7-tetrahydro-1H-pyrrolo[3,2-c]pyridin-5-yl]-2-cyclopropyl-5-methyl-thiazole] | > 70 | – |
| Cc1cc(Cl)ncc1N1CCc2[nH]c(-c3c(F)cccc3Cl)cc2C1=O [Example 45, 2-(2-Chloro-6-fluoro-phenyl)-5-(6-chloro-4-methyl-pyridin-3-yl)-1,5,6,7-tetrahydro-pyrrolo[3,2-c]pyridin-4-one] | > 70 | – |
| COc1cnc(C(F)(F)F)nc1N1CCc2[nH]c(-c3c(F)cccc3F)cc2C1 [Example 84, 2-(2,6-Difluoro-phenyl)-5-[5-methoxy-2-(trifluoromethyl)-pyrimidin-4-yl]-4,5,6,7-tetrahydro-1H-pyrrolo[3,2-c]pyridine] | 50 to 70 | – |
| Cc1sc(-c2ncco2)nc1N1CCc2[nH]c(-c3c(F)cccc3F)cc2C1 [Example 57, 2-[4-[2-(2,6-Difluoro-phenyl)-4,5,6,7-tetrahydro-1H-pyrrolo[3,2-c]pyridin-5-yl]-5-methyl-thiazol-2-yl]-oxazole] | > 70 | – |
| Cc1cc(C(=O)N(C)C)ccc1N1CCc2[nH]c(-c3c(F)cccc3F)cc2C1 [Example 81, 4-[2-(2,6-Difluoro-phenyl)-4,5,6,7-tetrahydro-1H-pyrrolo[3,2-c]pyridin-5-yl]-N,N,3-trimethyl-benzamide] | > 70 | – |
| Cc1sccc1N1CCc2[nH]c(-c3c(F)cccc3F)cc2C1 [Example 55, 2-(2,6-Difluoro-phenyl)-5-(2-methyl-thiophen-3-yl)-4,5,6,7-tetrahydro-1H-pyrrolo[3,2-c]pyridine] | > 70 | – |
